Several values for one entry are separate records, joined by “and”; a condition that tells them apart may be missing. Identical values can stand only once.
Experiments:
[1] = RTX plasma concentrations after nerve block or local application; format: in vivo, dog; parameters: Plasma concentration: unit not given here
Protocol: Fourteen adult female beagle dogs, weighing 11.9±0.6 kg and between 3-5 years of age, were enrolled in this study. Each animal was randomly assigned to one of four groups. Four dogs (group 1) received a femoral and sciatic nerve block with 12.5 μg RTX per nerve (25 μg RTX total) diluted with sterile saline for a total volume of 2 mL (half volume per block). Another four dogs (group 2) received a femoral and a sciatic nerve block with 3.12 μg RTX per nerve block (6.25 μg RTX total) diluted with sterile saline for a total volume of 2 mL (half volume per block). Group 3 (4 animals) received a femoral and sciatic nerve block with 5 mg bupivacaine total (standard of care) plus a total of 50 μg RTX (total volume of 4 mL, concentration 12.5 μg/mL) applied locally to the cut on the tibia for 10 min. Group 4 (2 animals) was the control group and received a femoral and a sciatic nerve block with 5 mg bupivacaine total (standard of care).
Blood (4-5 mL) was collected at the beginning of the study for complete blood count and chemistry parameters. Another 2 mL sample was collected at time 0 (baseline), 5, 15, 45, 60, and 90 minutes, and at 2, 3, 4, 6, and 8 hours after RTX administration for pharmacokinetic analysis to determine how plasma levels of RTX change over time. Dog plasma samples were extracted using an organic solvent mixture, dried under nitrogen, reconstituted and analyzed by reversed-phase HPLC. The mobile phase was nebulized using heated nitrogen in a Z-spray source/interface set to electrospray positive ionization mode. The ionized compounds are detected using tandem mass spectrometry or MS/MS.
RTX Plasma concentrations (pg/mL) were measured in the dogs following administration of RTX solution as femoral and sciatic nerve blocks.

[2] = system: CGRP immunopositive axons of sciatic and femoral nerves; experiment: Quantification of CGRP immunopositive nerve fibers; format: in vivo, dog
Protocol: FIGS. 1A-J show density of CGRP immunopositive axons in representative confocal images of ipsilateral (left; A-D) and contralateral (right; E-H) sciatic nerve from dogs post-TPLO and after different treatment and doses of RTX. Each bar represents the mean±SEM. Data were analyzed by one-way ANOVA followed by Tukey post hoc test; *p<0.05. FIGS. 1I-J are bar graphs of the density of CGRP immunopositive axons, (density of nerve fibers in mm/mm3) in ipsilateral (I) and contralateral (J) sciatic nerves as measured in n subjects in each group.
FIGS. 3A-J show CGRP immunopositive axon density in representative confocal images of ipsilateral (left; A-D) and contralateral (right; E-H) femoral nerve from dogs post-TPLO surgery and after different treatment and doses of RTX. Each bar represents the mean±SEM. Data were analyzed by one-way ANOVA followed by Tukey post hoc test; *p<0.05. FIGS. 3I-J are bar graphs of the density of CGRP immunopositive axons (density of nerve fibers in mm/mm3) in ipsilateral (I), and contralateral (J) femoral nerves as measured in n subjects in each group.
The effects of different routes of administration and/or different doses of RTX on the density of CGRP immunopositive axons in the ipsilateral (left) and contralateral (right) sciatic nerves are shown in FIG. 1. […] However, statistical significance was observed only with the dose of 12.5 μg (25 μg total; p=0.0184) per nerve of RTX. FIGS. 1E-H show the effect of different treatment and doses of RTX on the density of CGRP nerve axons innervating the contralateral (right) sciatic nerve from animals post-TPLO.

C=C(C)[C@]12C[C@@H](C)[C@@]34O[C@](Cc5ccccc5)(O[C@@H]1[C@@H]3C=C(COC(=O)Cc1ccc(O)c(OC)c1)C[C@]1(O)C(=O)C(C)=C[C@@H]41)O2 [RTX, resiniferatoxin]
Plasma concentrations for RTX ([1]; Group 1 High Dose, 25 μg total F/Sc nerve block, 45 min, dogs 0271, 2968, 3837, 5635 in c3-c6): BQL (BQL—Below the Quantifiable Limit < 50.0 pg/mL) | Plasma concentrations for RTX ([1]; Group 1 High Dose, 25 μg total F/Sc nerve block, 60 min, dogs 0271, 2968, 3837, 5635 in c3-c6): BQL (BQL—Below the Quantifiable Limit < 50.0 pg/mL) | Plasma concentrations for RTX ([1]; Group 1 High Dose, 25 μg total F/Sc nerve block, 6 h, dogs 0271, 2968, 3837, 5635 in c3-c6): 94.1 pg/mL and 182 pg/mL and 130 pg/mL | Plasma concentrations for RTX ([1]; Group 1 High Dose, 25 μg total F/Sc nerve block, 8 h, dogs 0271, 2968, 3837, 5635 in c3-c6): 62.3 pg/mL and 117 pg/mL and 99.1 pg/mL | Plasma concentrations for RTX ([1]; Group 1 High Dose, 25 μg total F/Sc nerve block, Predose, dogs 0271, 2968, 3837, 5635 in c3-c6): BQL (BQL—Below the Quantifiable Limit < 50.0 pg/mL) | Plasma concentrations for RTX ([1]; Group 2 Low Dose, 6.25 μg total F/Sc nerve block, 0 min, dogs 2561, 3743, 4681, 5686 in c3-c6): BQL (BQL—Below the Quantifiable Limit < 50.0 pg/mL) | Plasma concentrations for RTX ([1]; Group 2 Low Dose, 6.25 μg total F/Sc nerve block, 5 min, dogs 2561, 3743, 4681, 5686 in c3-c6): BQL (BQL—Below the Quantifiable Limit < 50.0 pg/mL) | Plasma concentrations for RTX ([1]; Group 2 Low Dose, 6.25 μg total F/Sc nerve block, 15 min, dogs 2561, 3743, 4681, 5686 in c3-c6): BQL (BQL—Below the Quantifiable Limit < 50.0 pg/mL) | Plasma concentrations for RTX ([1]; Group 2 Low Dose, 6.25 μg total F/Sc nerve block, 45 min, dogs 2561, 3743, 4681, 5686 in c3-c6): BQL (BQL—Below the Quantifiable Limit < 50.0 pg/mL) | Plasma concentrations for RTX ([1]; Group 2 Low Dose, 6.25 μg total F/Sc nerve block, 60 min, dogs 2561, 3743, 4681, 5686 in c3-c6): BQL (BQL—Below the Quantifiable Limit < 50.0 pg/mL) | Plasma concentrations for RTX ([1]; Group 2 Low Dose, 6.25 μg total F/Sc nerve block, 6 h, dogs 2561, 3743, 4681, 5686 in c3-c6): BQL (BQL—Below the Quantifiable Limit < 50.0 pg/mL) | Plasma concentrations for RTX ([1]; Group 2 Low Dose, 6.25 μg total F/Sc nerve block, 8 h, dogs 2561, 3743, 4681, 5686 in c3-c6): BQL (BQL—Below the Quantifiable Limit < 50.0 pg/mL) | Plasma concentrations for RTX ([1]; Group 2 Low Dose, 6.25 μg total F/Sc nerve block, Predose, dogs 2561, 3743, 4681, 5686 in c3-c6): BQL (BQL—Below the Quantifiable Limit < 50.0 pg/mL) | Plasma concentrations for RTX ([1]; Group 3 Local, 50 μg on bone incision, 0 min, dogs 2272, 3007, 3722, 9501 in c3-c6): BQL (BQL—Below the Quantifiable Limit < 50.0 pg/mL) | Plasma concentrations for RTX ([1]; Group 3 Local, 50 μg on bone incision, 5 min, dogs 2272, 3007, 3722, 9501 in c3-c6): BQL (BQL—Below the Quantifiable Limit < 50.0 pg/mL) | Plasma concentrations for RTX ([1]; Group 3 Local, 50 μg on bone incision, 15 min, dogs 2272, 3007, 3722, 9501 in c3-c6): BQL (BQL—Below the Quantifiable Limit < 50.0 pg/mL) | Plasma concentrations for RTX ([1]; Group 3 Local, 50 μg on bone incision, 45 min, dogs 2272, 3007, 3722, 9501 in c3-c6): BQL (BQL—Below the Quantifiable Limit < 50.0 pg/mL) | Plasma concentrations for RTX ([1]; Group 3 Local, 50 μg on bone incision, 60 min, dogs 2272, 3007, 3722, 9501 in c3-c6): BQL (BQL—Below the Quantifiable Limit < 50.0 pg/mL) | Plasma concentrations for RTX ([1]; Group 3 Local, 50 μg on bone incision, 90 min, dogs 2272, 3007, 3722, 9501 in c3-c6): BQL (BQL—Below the Quantifiable Limit < 50.0 pg/mL) | Plasma concentrations for RTX ([1]; Group 3 Local, 50 μg on bone incision, 2 h, dogs 2272, 3007, 3722, 9501 in c3-c6): BQL (BQL—Below the Quantifiable Limit < 50.0 pg/mL) | Plasma concentrations for RTX ([1]; Group 3 Local, 50 μg on bone incision, 3 h, dogs 2272, 3007, 3722, 9501 in c3-c6): BQL (BQL—Below the Quantifiable Limit < 50.0 pg/mL) | Plasma concentrations for RTX ([1]; Group 3 Local, 50 μg on bone incision, 4 h, dogs 2272, 3007, 3722, 9501 in c3-c6): BQL (BQL—Below the Quantifiable Limit < 50.0 pg/mL) | Plasma concentrations for RTX ([1]; Group 3 Local, 50 μg on bone incision, 6 h, dogs 2272, 3007, 3722, 9501 in c3-c6): BQL (BQL—Below the Quantifiable Limit < 50.0 pg/mL) | Plasma concentrations for RTX ([1]; Group 3 Local, 50 μg on bone incision, 8 h, dogs 2272, 3007, 3722, 9501 in c3-c6): BQL (BQL—Below the Quantifiable Limit < 50.0 pg/mL) | Plasma concentrations for RTX ([1]; Group 3 Local, 50 μg on bone incision, Predose, dogs 2272, 3007, 3722, 9501 in c3-c6): BQL (BQL—Below the Quantifiable Limit < 50.0 pg/mL) | Plasma concentration ([1]; Subject 2968 (group 1), 2 hour timepoint): 1790 | RTX plasma levels ([1]; all dogs that received the local application (50 μg)): below the quantifiable limit at all timepoints | concentration at 90 min ([1]; female, beagle, dog, plasma, 6.25 μg, Group 2 Low Dose, 6.25 μg total F/Sc nerve block, 90 min, dogs 2561, 3743, 4681, 5686 in c3-c6): 0.085 ng/mL | concentration at 2 h ([1]; female, beagle, dog, plasma, 6.25 μg, Group 2 Low Dose, 6.25 μg total F/Sc nerve block, 2 h, dogs 2561, 3743, 4681, 5686 in c3-c6): 0.0607 ng/mL | concentration at 3 h ([1]; female, beagle, dog, plasma, 6.25 μg, Group 2 Low Dose, 6.25 μg total F/Sc nerve block, 3 h, dogs 2561, 3743, 4681, 5686 in c3-c6): 0.0847 ng/mL | concentration at 4 h ([1]; female, beagle, dog, plasma, 6.25 μg, Group 2 Low Dose, 6.25 μg total F/Sc nerve block, 4 h, dogs 2561, 3743, 4681, 5686 in c3-c6): 0.0506 ng/mL | concentration at 0 min ([1]; female, beagle, dog, plasma, 25 μg, Group 1 High Dose, 25 μg total F/Sc nerve block, 0 min, dogs 0271, 2968, 3837, 5635 in c3-c6): 0.397 ng/mL | concentration at 5 min ([1]; female, beagle, dog, plasma, 25 μg, Group 1 High Dose, 25 μg total F/Sc nerve block, 5 min, dogs 0271, 2968, 3837, 5635 in c3-c6): 0.1 ng/mL | concentration at 15 min ([1]; female, beagle, dog, plasma, 25 μg, Group 1 High Dose, 25 μg total F/Sc nerve block, 15 min, dogs 0271, 2968, 3837, 5635 in c3-c6): 0.0964 ng/mL | concentration at 90 min ([1]; female, beagle, dog, plasma, 25 μg, Group 1 High Dose, 25 μg total F/Sc nerve block, 90 min, dogs 0271, 2968, 3837, 5635 in c3-c6): 0.0551 ng/mL | concentration at 6 h ([1]; female, beagle, dog, plasma, 25 μg, Group 1 High Dose, 25 μg total F/Sc nerve block, 6 h, dogs 0271, 2968, 3837, 5635 in c3-c6): 0.105 ng/mL | concentration at 8 h ([1]; female, beagle, dog, plasma, 25 μg, Group 1 High Dose, 25 μg total F/Sc nerve block, 8 h, dogs 0271, 2968, 3837, 5635 in c3-c6): 0.0656 ng/mL | RTX plasma levels at last time point ([1]; high dose group (25 μg total nerve block)): still detectable at 8 hours | Time after which RTX plasma levels fell to below detectable ([1]; low dose group (6.25 μg total nerve block)): 3 to 4 h | Time after administration until plasma levels of RTX reached detectable levels ([1]; nerve block, regardless of dose, except one dog in group 1 (subject 5635)): at least 90 minutes | Density of CGRP nerve axons in the contralateral sciatic nerve vs control treatment ([2]; RTX treated groups, p=0.9565, p=0.7911, p=0.7229): no differences | Density of CGRP nerve axons in the contralateral femoral nerve vs control treatment ([2]; any RTX treatment, p=0.9914, p>0.9999, p=0.1760): did not statistically reduce | Density of CGRP nerve axons in the ipsilateral sciatic nerve vs control treatment ([2]; local administration (50 μg), not statistically significant): reduced the density of CGRP nerve axons | Density of CGRP nerve axons in the ipsilateral sciatic nerve vs control treatment ([2]; peri-neural 3.12 μg per nerve (6.25 μg total), not statistically significant): reduced the density of CGRP nerve axons | Density of CGRP nerve axons in the ipsilateral femoral nerve ([2]; peri-neural 12.5 μg per nerve (25 μg total), p=0.0125): statistically reduced | Density of CGRP nerve axons in the ipsilateral sciatic nerve vs control treatment ([2]; peri-neural 12.5 μg per nerve (25 μg total), statistically significant, p=0.0184): reduced the density of CGRP nerve axons

From patent publication US20240261258A1, “Presurgical Perineural Administration of Resiniferatoxin For Reduction of Post-Operative Pain” (Sorrento Therapeutics, Inc., priority 2021, published 2024)
